A value given as a limit tells only on which side of the number the result lay.

As usually defined, the IC50 is the concentration that inhibits the measured activity by half. Higher therefore signals a need for much substance.

Chain of MEF2D/HDAC4 protein-protein interactions (Q14814 whole entry, species assumed, the tested form may be a part): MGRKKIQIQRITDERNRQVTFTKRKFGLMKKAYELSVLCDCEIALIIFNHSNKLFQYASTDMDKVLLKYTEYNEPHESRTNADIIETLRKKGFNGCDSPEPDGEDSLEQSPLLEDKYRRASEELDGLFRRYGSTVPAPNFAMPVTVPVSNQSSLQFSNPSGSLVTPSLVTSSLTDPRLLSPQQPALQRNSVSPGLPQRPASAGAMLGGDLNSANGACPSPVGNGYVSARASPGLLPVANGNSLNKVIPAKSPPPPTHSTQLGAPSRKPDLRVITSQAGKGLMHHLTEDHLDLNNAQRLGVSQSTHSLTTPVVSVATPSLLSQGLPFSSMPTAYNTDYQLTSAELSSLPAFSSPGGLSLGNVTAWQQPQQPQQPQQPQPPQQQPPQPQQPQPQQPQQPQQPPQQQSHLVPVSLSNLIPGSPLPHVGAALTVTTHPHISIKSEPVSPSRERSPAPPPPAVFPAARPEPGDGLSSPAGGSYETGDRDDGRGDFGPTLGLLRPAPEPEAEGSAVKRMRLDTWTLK

This experiment deals with MEF2D/HDAC4 protein-protein interactions (Homo sapiens (Human), UniProt Q14814). Kind of experiment: Mammalian two-hybrid assay, inhibition of MEF2D and HDAC4 protein interactions (luciferase reporter in HeLa cells). Format: cell-based. The settings on record: HeLa cells co-transfected with GAL4-MEF2D, HDAC4-VP16 and Gal4Luc; overnight treatment; luciferase normalized to Renilla. An excerpt:
Detection of MEF2D and HDAC4 interactions. In this mammalian two-hybrid assay, HDAC4 and MEF2D proteins were used. […] Human epithelial carcinoma cells (HeLa) were co-transfected with the two DNA constructs (GAL4-MEF2D and HDAC4-VP16) and a reporter plasmid (Gal4Luc). […] MEF2D and HDAC4 protein interactions were detected as a result of the GAL4-MEF2D and HDAC4-VP16 protein complex binding a DNA promoter on the reporter plasmid (Gal4Luc) and driving cellular expression of a luciferase gene. The measured luciferase protein signal was proportional to the amount of MEF2D and HDAC4 protein interactions occurring with the cell.
The HDAC4 fragment lacked the catalytic domain so that the deacetylase activity was excluded from the assay.
Detection of inhibition of MEF2D and HDAC4 interactions. Next, the assay was used to test whether the compounds could disrupt the interactions between MEF2D and HDAC4. After co-expressing the GAL4-MEF2D and HDAC4-VP16 DNA constructs and reporter plasmid, the HeLa cells were treated with a test compound (10 μM) overnight. Cells transfected with the positive control GAL4VP16 fusion construct and reporter plasmid were also treated with the test compound (10 μM) overnight. As another control, DMSO was added (but kept below 0.2% V/V) to cells transfected with the positive GAL4VP16 fusion construct or the GAL4-MEF2D and HDAC4-VP16 DNA constructs. A luciferase assay was performed as described above according to the manufacturer's protocol (Promega). The luciferase response was normalized against the Renilla Luciferase as an internal control.
The relative activity and IC50 calculations. […] The relative activity, I, was the ratio of former to later, i.e. X/Y, expressed in percentile. […] The IC50 was the concentration of the compounds when X/Y equals 50.
Background: Reporter assays use an easily measured gene product as a stand-in for the process of interest.
`CCCC(=O)N[C@@H](CCCCC(=O)NO)C(=O)Nc1cccc(Br)c1` [ST108] yielded an IC50 of 400 nM. `O=C(/C=C/c1cccc(CNc2cccc(N3CCCC3)c2)c1)NO` [ST37] gave an IC50 of 590 nM. In the case of `CCN(CC)c1cccc(NCc2cccc(/C=C/C(=O)Nc3ccccc3N)c2)c1` [ST9] it was 3530 nM; in that of `COc1cccc(NCc2cccc(/C=C/C(=O)NO)c2)c1` [ST19], 320 nM. `Nc1ccccc1NC(=O)/C=C/c1cccc(Nc2nccc(-c3cccnc3)n2)c1` [ST48] came in with a half-maximal inhibitory concentration (IC50) greater than 20000 nM. `Nc1ccccc1NC(=O)/C=C/c1cccc(CNc2nc(-c3ccc(F)cc3)cs2)c1` [ST52] displayed an IC50 greater than 20000 nM.

Turning to `CC(C)OC(=O)N[C@@H](CCCCC(=O)Nc1ccccc1N)C(=O)Nc1cccc(Br)c1` [ST97], the IC50 came to 450 nM.

On to `CCCCc1cccc(NCc2cccc(/C=C/C(=O)NO)c2)c1` [ST34], for which the IC50 is 2030 nM. This IC50 lies about 4.5-fold higher than the previous one. As for `O=C(/C=C/c1cccc(CNc2ccc(F)cc2F)c1)NO` [ST25], the IC50 turned out to be 950 nM. With `O=C(/C=C/c1cccc(CNc2cccc(OCC(F)(F)F)c2)c1)NO` [ST46], 670 nM corresponded to half-maximal inhibition (IC50). This IC50 and that of the molecule before are within 1.5-fold of each other. `COc1cccc(NCc2cccc(/C=C/C(=O)Nc3ccccc3N)c2)c1` [ST3] displayed an IC50 of 4870 nM.

Take `O=C(/C=C/c1cccc(CNc2cccnc2)c1)NO` [ST72]: the IC50 was 1550 nM. Then `CCOC(=O)NC(CCCCC(=O)Nc1ccccc1N)C(=O)Nc1ccncc1` (stereo not drawn) [ST125], with 2440 nM. Then `Nc1ccccc1NC(=O)/C=C/c1ccc(F)c(CNc2ccccc2)c1` [ST11], with 18000 nM; and `COC(=O)N[C@@H](CCCCC(=O)Nc1ccccc1N)C(=O)Nc1cccc(Br)c1` [ST103], with 350 nM; and `O=C(/C=C/c1cccc(CNc2cccc(N3CCOCC3)c2)c1)NO` [ST32], with 250 nM. Take `CN(C)Cc1ccc(NCc2cccc(/C=C/C(=O)NO)c2)cc1` [ST42]: half-maximal inhibition (IC50) was put at 70 nM.

`O=C(/C=C/c1cccc(CNc2cccc(OC3CCC3)c2)c1)NO` [ST28] registered a 50% inhibitory concentration (IC50) of 670 nM. Against the preceding molecule, the IC50 is about 9.6-fold higher. `Nc1ccccc1NC(=O)CCCCC(NC(=O)c1ccccc1)C(=O)Nc1cccnc1` (stereo not drawn) [ST120] yielded an IC50 of 1560 nM.

`O=C(/C=C/c1cccc(CNc2ccc(F)cc2)c1)NO` [ST17] returned an IC50 of 990 nM.

`CCCC(=O)NC(CCCCC(=O)Nc1ccccc1N)C(=O)Nc1cccc(Br)c1` (stereo not drawn) [ST90] yielded an IC50 of 460 nM. Against the preceding molecule, the IC50 is about 2.2-fold lower. In the case of `CC(C)CC(=O)N[C@@H](CCCCC(=O)Nc1ccccc1N)C(=O)Nc1cccc(Br)c1` [ST101] it was 350 nM. In turn, `O=C(/C=C/c1cccc(CNc2cccc(C3COC3)c2)c1)NO` [ST43] yielded an IC50 of 270 nM. `CCOC(=O)NC(CCCCC(=O)Nc1ccccc1N)C(=O)Nc1cccc(SC(F)(F)F)c1` (stereo not drawn) [ST84] yielded an IC50 of 930 nM. Against the preceding molecule, the IC50 is about 3.4-fold higher. With `Cc1coc(NCc2cccc(/C=C/C(=O)NO)c2)n1` [ST77], it took 640 nM to reach half-maximal inhibition (IC50). Molecule `Nc1ccccc1NC(=O)/C=C/c1cccc(CNc2cccc(N3CCOCC3)c2)c1` [ST8] gave an IC50 of 2400 nM. Consider `CCOC(=O)N[C@H](CCCCC(=O)Nc1ccccc1N)C(=O)Nc1cccc(Br)c1` [ST95], for which the IC50 amounted to 1040 nM. Compared with the last molecule, the IC50 is about 2.3-fold lower. The molecule `CCOC(=O)NC(CCCCC(=O)NO)C(=O)Nc1cccc(Br)c1` (stereo not drawn) [ST113] showed an IC50 of 260 nM. On to `CCOC(=O)NC(CCCCC(=O)Nc1ccccc1N)C(=O)Nc1cccc2cccnc12` (stereo not drawn) [ST117], for which half-maximal inhibition (IC50) was put at 940 nM. This IC50 lies about 3.6-fold higher than the previous one. Molecule `CCOC(=O)NC(CCCCC(=O)Nc1ccccc1N)C(=O)Nc1cccc(C(C)(F)F)c1` (stereo not drawn) [ST81] returned an IC50 of 850 nM. `Cc1[nH]c2ccccc2c1CCNc1cccc(/C=C/C(=O)NO)c1` [ST71] yielded an IC50 of 270 nM. `CCOC(=O)N[C@@H](CCCCC(=O)Nc1ccccc1N)C(=O)Nc1cccc(OCC)c1` [ST100, (S)-ethyl (7-((2-aminophenyl)amino)-1-((3-ethoxyphenyl)amino)-1,7-dioxoheptan-2-yl)carbamate] gave an IC50 of 210 nM. Then `CN(C)c1ccc(/C=C2C=C(/C=C/C(=O)NO)CCC/2)cc1` [ST30], with greater than 20000 nM; and `COc1cccc(NCc2cc(F)cc(/C=C/C(=O)NO)c2)c1` [ST44], with 380 nM. Then `Cc1cnc(NCc2cccc(/C=C/C(=O)Nc3ccccc3N)c2)s1` [ST59], with 3130 nM; and `CCOC(=O)NC(CCCCC(=O)Nc1ccccc1N)C(=O)Nc1cncc(OC)c1` (stereo not drawn) [ST124], with 1530 nM. The molecule `O=C(CCCCC(NC(=O)c1cccnc1)C(=O)Nc1cccc(Br)c1)NO` (stereo not drawn) [ST109] showed an IC50 of 680 nM. This IC50 is about 2.2-fold lower than that of the molecule before.

`O=C(/C=C/c1cccc(CNc2cccc(OC3CCCC3)c2)c1)NO` [ST29] gave an IC50 of 1180 nM. With `CCN1CCN(C(CCCCC(=O)Nc2ccccc2N)C(=O)Nc2cccc(Br)c2)C1=O` (stereo not drawn) [ST105], 1480 nM corresponded to half-maximal inhibition (IC50). Take `Nc1ccccc1NC(=O)/C=C/c1cccc(CNc2cccc3cccnc23)c1` [ST56]: the IC50 worked out at 5220 nM. This IC50 is about 3.5-fold higher than that of the molecule before. The molecule `O=C(/C=C/c1cccc(CNc2ccc(F)c(F)c2)c1)NO` [ST24] displayed an IC50 of 1020 nM. Against the preceding molecule, the IC50 is about 5.1-fold lower. As to `Nc1ccccc1NC(=O)CCCCC(NC(=O)c1ccccc1)C(=O)Nc1ccncc1` (stereo not drawn) [ST121], half-maximal inhibition (IC50) required 2750 nM.

Molecule `O=C(/C=C/c1cccc(CNc2cccc(OC3CC3)c2)c1)NO` [ST16] displayed a 50% inhibitory concentration (IC50) of 380 nM. With `Nc1ccccc1NC(=O)/C=C/c1cccc(CNc2nnc(C(F)(F)F)s2)c1` [ST61], the IC50 turned out to be 8030 nM. Regarding `CCOC(=O)NC(CCCCC(=O)Nc1ccccc1N)C(=O)Nc1ccc2ncccc2c1` (stereo not drawn) [ST118], the IC50 came out at 490 nM.

`CCN(C)c1cccc(NCc2cccc(/C=C/C(=O)NO)c2)c1` [ST38] had an IC50 of 260 nM. For `CCOC(=O)NC(CCCCC(=O)Nc1ccccc1N)C(=O)Nc1ccccn1` (stereo not drawn) [ST126], the IC50 turned out to be 3680 nM. For the molecule `CCOc1cccc(NCC2C=C(/C=C/C(=O)NO)CCC2)c1` (stereo not drawn) [ST35], half-maximal inhibition (IC50) required 4720 nM. The molecule `COC(=O)N[C@H](CCCCC(=O)Nc1ccccc1N)C(=O)Nc1cccc(Br)c1` [ST96] registered an IC50 of 1370 nM. For the molecule `COc1ccc(-c2csc(NCc3cccc(/C=C/C(=O)Nc4ccccc4N)c3)n2)cc1` [ST51], the IC50 was greater than 20000 nM.

In the case of `CCOc1cccc(NCc2cccc(/C=C/C(=O)NO)c2)c1` [ST21], it took 350 nM to reach half-maximal inhibition (IC50). `Cc1nnc(NCc2cccc(/C=C/C(=O)Nc3ccccc3N)c2)o1` [ST65] registered an IC50 of 5370 nM. Turning to `O=C(CCCC[C@@H](NC(=O)c1ccccc1)C(=O)NC1CC1)NO` [ST128], inhibition was half-maximal at 2510 nM (IC50).

Molecule `CC(C)(C)OC(=O)N[C@@H](CCCCC(=O)Nc1ccccc1N)C(=O)Nc1cccc(Br)c1` [ST106] returned an IC50 of 1110 nM. The molecule `O=C(/C=C/c1cccc(CNc2nc(C(F)(F)F)cs2)c1)NO` [ST75] displayed an IC50 of 410 nM.

`CCOC(=O)NC(CCCCC(=O)Nc1cccc(Br)c1)C(=O)Nc1ccccc1N` (stereo not drawn) [ST86] gave a half-inhibitory concentration (IC50) greater than 20000 nM. `N#Cc1cccc(NCc2cccc(/C=C/C(=O)NO)c2)c1` [ST23] registered an IC50 of 420 nM. Molecule `O=C(/C=C/c1cccc(CNc2cccc(F)c2)c1)NO` [ST18] had an IC50 of 1030 nM. Compared with the last molecule, the IC50 is about 2.5-fold higher. As for `CCOC(=O)N[C@@H](CCCCC(=O)NO)C(=O)Nc1cccc(Br)c1` [ST107], the half-inhibitory concentration (IC50) is 440 nM. In turn, `CSc1cccc(NCc2cccc(/C=C/C(=O)NO)c2)c1` [ST20] returned an IC50 of 320 nM. The IC50 values of the last two molecules are within 1.5-fold of each other. `Nc1ccccc1NC(=O)CCCCC(NC(=O)c1ccccn1)C(=O)Nc1cccnc1` (stereo not drawn) [ST122] came in with an IC50 of 1620 nM. In the case of `O=C(/C=C/c1cccc(CNc2nc(C(F)(F)F)co2)c1)NO` [ST79] it was 280 nM. As for `CCOC(=O)NC(CCCCC(=O)Nc1ccccc1N)C(=O)Nc1cccc(SC)c1` (stereo not drawn) [ST82], the IC50 worked out at 500 nM. `CCOC(=O)NC(CCCCC(=O)Nc1ccccc1N)C(=O)Nc1cccc(Br)c1` (stereo not drawn) [ST80] registered an IC50 of 560 nM. As to `Nc1ccccc1NC(=O)/C=C/c1cccc(C(=O)Nc2nc(-c3ccncc3)cs2)c1` [ST57], the concentration for half-maximal inhibition (IC50) was greater than 20000 nM. Molecule `O=C(/C=C/c1cccc(CNc2cccc(N3CCNCC3)c2)c1)NO` [ST40] registered a concentration for half-maximal inhibition (IC50) of 260 nM. Consider `Nc1ccccc1NC(=O)CCCCC(N)C(=O)Nc1cccc(Br)c1` (stereo not drawn) [ST87], for which the IC50 is 3060 nM. Regarding `Nc1ccccc1NC(=O)/C=C/c1cccc(CNc2nccc(-c3cccnc3)n2)c1` [ST47], it took 1490 nM to reach half-maximal inhibition (IC50). `O=C(/C=C/c1cccc(CNc2ccc(Cl)cc2)c1)NO` [ST26]: the IC50 was 790 nM. The molecule `COc1ccc(NCC2C=C(/C=C/C(=O)NO)CCC2)cc1` (stereo not drawn) [ST36] gave an IC50 of 1880 nM. `CCN(CC)c1cccc(NCc2cccc(/C=C/C(=O)NO)c2)c1` [ST41]: the IC50 came to 1160 nM. With `O=C(/C=C/c1cccc(CNc2nnc(C(F)(F)F)s2)c1)NO` [ST74], 320 nM corresponded to half-maximal inhibition (IC50). `O=C(/C=C/c1cccc(CNc2cccc(N3CCCCC3)c2)c1)NO` [ST39]: the half-inhibitory concentration (IC50) amounted to 310 nM. This IC50 and that of the molecule before are within 1.5-fold of each other. The molecule `Nc1ccccc1NC(=O)CCCC[C@H](NC(=O)CC1CC1)C(=O)Nc1cccc(Br)c1` [ST98] gave an IC50 of 320 nM.

`Nc1ccccc1NC(=O)/C=C/c1cccc(C(C(=O)Nc2ccccc2)C(=O)Nc2ccccc2)c1` [ST58]: the IC50 was 3010 nM. This IC50 is about 9.4-fold higher than that of the molecule before.

Source of the values: patent US11230524B2, “Myocyte enhancer factor 2 (MEF2) modulators” (STANDARD LLC, priority 2017, dated 2022).
